# Literature values, collected in patent US20150325856A1, “ENVIRONMENTALLY FRIENDLY INKJET-PRINTABLE LITHIUM BATTERY CATHODE FORMULATIONS, METHODS AND DEVICES” (NEW JERSEY INSTITUTE OF TECHNOLOGY, priority 2014, published 2015).
# Where two headings read alike, the source gives them in different places.
# Experiments:
# [1] = test system: rats, mice, guinea-pigs and rabbits
# [2] = test system: rats and rabbits
# [3] = test system: rats; conditions: heads only
# [4] = test system: rats; conditions: whole body exposure
# [5] = test system: rabbits
# [6] = test system: rabbits; conditions: Ansell and Fowler, as cited in WHO 2001
smiles,measurement,setting,value
"CN1CCCC1=O [NMP, N-methyl-pyrrolidone]",Tox. Cat. (oral LD50),[1]; oral,(Tox. Cat. III-IV)
same,Oral LD50,"[1]; rats, mice, guinea-pigs and rabbits, Ansell and Fowler, 1988, as cited in WHO 2001",3900 to 7900 mg/kg
same,Tox. Cat. (dermal LD50),[2]; dermal,(Tox. Cat. III-IV)
same,Dermal LD50,"[2]; rats and rabbits, Bartsch et al., as cited in WHO 2001, Wallen 1992","4000-10,000 mg/kg"
same,Inhalation LC50,[3],(5100 mg/m^3)
same,Inhalation LC50,"[3]; BASF, 1988, as cited in WHO 2001",>5.1 µg/mL
same,Inhalation LC50,[4],(1700 mg/m^3)
same,Inhalation LC50,"[4]; E. I. DuPont de Nemours & Co. 1977, as cited in WHO 2001",=1.7 mg/L
same,"Primary Eye Irritation, recovery",[5],recovered after 21 days post dosing
same,Primary Eye Irritation,"[5]; causing corneal opacity, iritis and conjunctivitis, Ansell and Fowler, as cited in WHO 2001",Moderate (causing
same,Primary Skin Irritation,[6],Practically non-
